Laboratory results: paper PMC2861369 (Current pharmaceutical biotechnology, 2009)

Target: T1, EH (recombinant mouse sEH) (Mus musculus, UniProt P34914)
T1 sequence (P34914 1-554): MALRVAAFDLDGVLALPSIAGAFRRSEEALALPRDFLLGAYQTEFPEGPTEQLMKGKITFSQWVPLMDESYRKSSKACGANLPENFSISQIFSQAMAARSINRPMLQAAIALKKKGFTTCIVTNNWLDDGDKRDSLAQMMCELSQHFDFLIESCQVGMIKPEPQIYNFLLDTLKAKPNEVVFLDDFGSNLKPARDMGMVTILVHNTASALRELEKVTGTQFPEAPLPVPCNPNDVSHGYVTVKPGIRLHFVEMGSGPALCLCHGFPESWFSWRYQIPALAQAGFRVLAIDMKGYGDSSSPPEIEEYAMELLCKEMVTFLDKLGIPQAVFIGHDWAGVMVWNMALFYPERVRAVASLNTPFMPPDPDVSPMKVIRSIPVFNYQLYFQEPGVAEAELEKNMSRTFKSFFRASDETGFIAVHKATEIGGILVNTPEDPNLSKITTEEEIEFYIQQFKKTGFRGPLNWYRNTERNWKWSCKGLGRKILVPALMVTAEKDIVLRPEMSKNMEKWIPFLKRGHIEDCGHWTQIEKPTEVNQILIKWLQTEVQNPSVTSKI
Assay: Effect of EH on the fluorescence of naphthyl derivatives
Format: binding
Conditions: ex 330 nm, EH 0–100 nM

O=C(Nc1ccc(O)c2ccccc12)NC1CCCCC1 [XIIa]
Effect of EH on fluorescence of the naphthyl derivative (in words): appearance of a new peak and a clear enhancement of fluorescence
